# According to patent publication US6756381B2 (SuperGen, Inc., priority 2002, dated 2004):
# What was measured:
# [1] = Dehydration/desolvation under vacuum, XRPD compared; assay type: physicochemical
# Experimental: Dehydration/desolvation studies were conducted by placing a sample under continuous vacuum at room temperature for 14 days. An XRPD pattern was obtained on the remaining solid and compared to the starting material.
# human tumor xenografts = conditions: nude mice; cited from earlier work
# [2] = Moisture sorption/desorption (VTI SGA-100 moisture balance); assay type: physicochemical; conditions: for hygroscopicity (in words): 5 to 95% RH; for Weight % chg: 25 deg C
# Source text: The samples were not dried prior to analysis.
# [3] = Storage of Form B in a closed vial, XRPD pattern compared; assay type: physicochemical; conditions: 31 days, ambient conditions
# Experimental: X-ray powder diffraction analyses were carried out on a Shimadzu XRD-6000 X-ray powder diffractometer using Cu Kα radiation having a wavelength of 1.5406 Å. The instrument is equipped with a fine-focus X-ray tube. The tube power was set by setting potential difference at 40 kV, and current 40 mA. The divergence and scattering slits were set at 1° and the receiving slit was set at 0.15 mm. Diffracted radiation was detected by a NaI scintillation detector. A theta-two theta continuous scan at 3°/min (0.4 sec/0.02° step) from 2.5 to 40 °2 θ was performed. A silicon standard was analyzed each day to check the instrument alignment. Each sample was analyzed in a quartz sample holder. A variable temperature (VT-XRPD) experiment was performed on one form. The sample was prepared for analysis by pressing it into a variable temperature holder. A powder pattern was collected initially at 35° C. and again, after heating, at 200° C.
# [4] = cited from earlier work
# [5] = start, elapsed time 0.0 min, sample not dried
smiles,measurement,setting,value
"CC[C@@]1(O)C(=O)OCc2c1cc1n(c2=O)Cc2cc3c([N+](=O)[O-])cccc3nc2-1 [Form C, 9-nitrocamptothecin]",result of attempt to desolvate under vacuum,[1],becomes amorphous
"CC[C@@]1(O)C(=O)OCc2c1cc1n(c2=O)Cc2cc3c([N+](=O)[O-])cccc3nc2-1 [9-nitrocamptothecin, 9-nitro-20(S)-camptothecin]",regression of human tumors established as xenografts,human tumor xenografts,induced regression
"CC[C@@]1(O)C(=O)OCc2c1cc1n(c2=O)Cc2cc3c([N+](=O)[O-])cccc3nc2-1 [Form B, 9-nitrocamptothecin]",hygroscopicity (in words),[2],relatively hygroscopic
same,Weight % chg,[2]; [5],0.0000%
same,stability of the crystalline polymorph on storage (XRPD pattern unchanged),[3],relatively stable
CC[C@@](O)(C(=O)[O-])c1cc2n(c(=O)c1CO)Cc1cc3ccccc3nc1-2.[Na+] [Sodium camptothecin],unpredictable side effects,[4]; administered intravenously,myelosuppression and hemorrhagic cystitis
same,activity in clinical trials,"[4]; solubilized by sodium hydroxide in water, intravenous",antineoplastic activity
"CC[C@@]1(O)C(=O)OCc2c1cc1n(c2=O)Cc2cc3c([N+](=O)[O-])cccc3nc2-1 [Form A, 9-nitrocamptothecin]",hygroscopicity (in words),[2],not hygroscopic
same,Weight % chg,"[2]; sorption, about 35% RH",0.0210%
same,Weight % chg,[2]; [5],0.0000%
